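Five compound concentrations were applied to cells in 96-well plates for 48 hours; endpoints were derived by simple linear interpolation of the resulting dose-response curve. At the TGI there is no net growth.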
Columns and labels:
Assay in all cases: DTP human tumour cell line panel, 48 h
NCI-H226 lung = system: NCI-H226 lung
HL-60(TB) leukemia = system: HL-60(TB) leukemia
SW-620 colon = system: SW-620 colon
RPMI-8226 leukemia = system: RPMI-8226 leukemia
HCC-2998 colon = system: HCC-2998 colon
MALME-3M melanoma = system: MALME-3M melanoma
BT-549 breast = system: BT-549 breast
SK-MEL-28 melanoma = system: SK-MEL-28 melanoma
HOP-92 NSCLC = system: HOP-92 NSCLC
U251 CNS = system: U251 CNS
OVCAR-5 ovarian = system: OVCAR-5 ovarian
MOLT-4 leukemia = system: MOLT-4 leukemia
SK-MEL-5 melanoma = system: SK-MEL-5 melanoma
PC-3 prostate = system: PC-3 prostate
SK-MEL-2 melanoma = system: SK-MEL-2 melanoma
MCF7 breast = system: MCF7 breast
A549 NSCLC = system: A549 NSCLC
HOP-62 NSCLC = system: HOP-62 NSCLC
KM12 colon = system: KM12 colon
EKVX NSCLC = system: EKVX NSCLC

SMILES | TGI (NCI-H226 lung) | TGI (HL-60(TB) leukemia) | TGI (SW-620 colon) | TGI (RPMI-8226 leukemia) | TGI (HCC-2998 colon) | TGI (MALME-3M melanoma) | TGI (BT-549 breast) | TGI (SK-MEL-28 melanoma) | TGI (HOP-92 NSCLC) | TGI (U251 CNS) | TGI (OVCAR-5 ovarian) | TGI (MOLT-4 leukemia) | TGI (SK-MEL-5 melanoma) | TGI (PC-3 prostate) | TGI (SK-MEL-2 melanoma) | TGI (MCF7 breast) | TGI (A549 NSCLC) | TGI (HOP-62 NSCLC) | TGI (KM12 colon) | TGI (EKVX NSCLC)
O=c1[nH]c(=O)n(C2OC(CO)C(O)C(F)C2O)cc1F (stereo not drawn) | > 100 µM | > 100 µM | > 100 µM | > 100 µM | > 100 µM | > 100 µM | > 100 µM | > 100 µM | > 100 µM | > 100 µM | > 100 µM | 62 µM | > 100 µM | > 100 µM | > 100 µM | > 100 µM | > 100 µM |  |  | 
Cc1ccc(NCC2CC/C(=C\c3ccc(Cl)cc3)C2=O)cc1 (stereo not drawn) | > 100 µM | 13.7 µM | 16.5 µM | 6.96 µM | > 69.8 µM | 38 µM | 36.5 µM | 36.7 µM | 30.6 µM | 34 µM | > 54.5 µM | > 32.4 µM | 20.4 µM | 37.5 µM |  | 26.7 µM | > 100 µM | > 82.6 µM | 19 µM | > 100 µM
C=C(c1ccccc1)C1ON(C)CCc2cc(OC)c(OC)cc21 (stereo not drawn) | > 100 µM | > 100 µM | > 100 µM | > 100 µM | > 100 µM | > 100 µM | > 100 µM | > 100 µM | > 100 µM | > 100 µM | > 100 µM | > 100 µM | 66 µM | > 100 µM |  | 48.3 µM | > 100 µM | > 100 µM | > 100 µM | > 100 µM
Cc1occc1C(=S)Nc1ccc(Cl)c(C(=O)OCC(F)(F)F)c1 | 35.9 µM | 65.6 µM | 56.3 µM | 51.5 µM | 35.1 µM | 73.7 µM | 42.7 µM | 42.6 µM | 44.1 µM | 39.3 µM | > 100 µM | 55.8 µM | 30.9 µM | 57.8 µM | 44.9 µM | 43 µM | 58.4 µM |  | 44.4 µM | 64.2 µM
NC(=O)C(Nc1c(Cl)cccc1Cl)c1cc2cc(Br)ccc2nc1Cl (stereo not drawn) | > 100 µM | > 100 µM | > 100 µM | > 100 µM | > 100 µM | > 100 µM | > 100 µM | > 100 µM | > 100 µM |  | > 100 µM | 57.6 µM | > 100 µM | > 100 µM | > 100 µM | > 100 µM | > 100 µM | > 100 µM | > 100 µM | > 100 µM

Source: PubChem BioAssay (NCI)
